The values below come from ChEMBL document CHEMBL3784937, “Synthesis and biological evaluation of indeno[1,5]naphthyridines as topoisomerase I (TopI) inhibitors with antiproliferative activity” (Eur J Med Chem, 2016).

Molecules are shown by their SMILES. Activity calls are given as the source filed them. No cut-off for these calls is given here. Where only a bound is given, the exact number is not on record here.

For experiment [1], the species on record is Homo sapiens. Kind of experiment: Inhibition of human recombinant topoisomerase 1B expressed in Saccharomyces cerevisiae using plasmid DNA as substrate assessed as DNA relaxation at 100 uM preincubated with enzyme for 15 mins followed by substrate addition after 15 secs by agarose gel electrophoresis.
The species named for experiment [2] is Homo sapiens. Kind of experiment: Inhibition of human recombinant topoisomerase 1B expressed in Saccharomyces cerevisiae using plasmid DNA as substrate assessed as DNA relaxation at 100 uM preincubated with enzyme for 15 mins followed by substrate addition after 1 min by agarose gel electrophoresis.
The species entered for experiment [3] is Homo sapiens. Kind of experiment: Inhibition of human recombinant topoisomerase 1B expressed in Saccharomyces cerevisiae using plasmid DNA as substrate assessed as DNA relaxation at 100 uM preincubated with enzyme for 15 mins followed by substrate addition after 3 min by agarose gel electrophoresis.
Experiment [4] is filed under the species Homo sapiens. Kind of experiment: Inhibition of human recombinant topoisomerase 1B expressed in Saccharomyces cerevisiae using plasmid DNA as substrate assessed as DNA relaxation at 50 uM preincubated with enzyme for 15 mins followed by substrate addition after 50 secs by agarose gel electrophoresis.
Experiment [5] is described as follows: Cytotoxicity against human BT20 cells assessed as growth inhibition after 48 hrs by CCK8 assay. It is filed as functional, cell-based. Conditions: BT-20, 48 h. For orientation: Tetrazolium assays rely on reduction of a dye to a coloured formazan, in cell work by metabolically active cells.
A further experiment concerns A549. Kind of experiment: Cytotoxicity against human A549 cells assessed as growth inhibition after 48 hrs by CCK8 assay. Format: functional, cell-based. The settings on record: A549, 48 h.
The nature of experiment [6]: Cytotoxicity against human SKOV3 cells assessed as growth inhibition after 48 hrs by CCK8 assay. Format: functional, cell-based. Conditions: SK-OV-3, 48 h.
The nature of experiment [7]: Inhibition of human recombinant topoisomerase 1B expressed in Saccharomyces cerevisiae using plasmid DNA as substrate assessed as DNA relaxation at 25 uM preincubated with enzyme for 15 mins followed by substrate addition after 50 secs by agarose gel electrophoresis.
The species named for experiment [8] is Homo sapiens. Kind of experiment: Inhibition of human recombinant topoisomerase 1B expressed in Saccharomyces cerevisiae using plasmid DNA as substrate assessed as DNA relaxation at 100 uM preincubated with substrate for 15 mins followed by enzyme addition after 15 secs to 3 mins by agarose gel electrophoresis.
The species entered for experiment [9] is Homo sapiens. Kind of experiment: Inhibition of human recombinant topoisomerase 1B expressed in Saccharomyces cerevisiae using plasmid DNA as substrate assessed as DNA relaxation at 100 uM after 15 secs to 3 mins by agarose gel electrophoresis.

As a reminder, the IC50 is the concentration at which inhibition is half-maximal. For `O=C1c2ccccc2-c2c1c(-c1cccc(F)c1)nc1cccnc21`, the inhibition result (in the experiment listed under Homo sapiens [1]; in the experiment listed under Homo sapiens [2]; in the experiment filed under Homo sapiens [3]; in the experiment listed under Homo sapiens [4]; in experiment [7]) was “Active” in each case. Further, the IC50 (in [5]; in the experiment on A549; in experiment [6]) was more than 100 µM throughout.

In the case of `FC(F)(F)c1ccc(-c2nc3cccnc3c3c2Cc2ccccc2-3)cc1`, the inhibition result in the experiment listed under Homo sapiens [1], in the experiment listed under Homo sapiens [2] and in the experiment listed under Homo sapiens [3] was “Active” in each case. Moreover, the IC50 (in [5]; in the experiment with A549; in [6]) was more than 100 µM in each case.

On to `Fc1ccc(-c2nc3cccnc3c3c2Cc2ccccc2-3)cc1F`, for which the inhibition result in the experiment listed under Homo sapiens [1], in the experiment filed under Homo sapiens [2] and in the experiment listed under Homo sapiens [3] was “Active” throughout. For the same compound, the IC50 in experiment [5] is more than 100 µM; in the experiment on A549, 48.6 µM; in experiment [6], more than 100 µM.

On to `O=C1c2ccccc2-c2c1c(-c1ccccc1)nc1cccnc21`, for which the inhibition result (in the experiment filed under Homo sapiens [1]; in the experiment filed under Homo sapiens [2]; in the experiment listed under Homo sapiens [3]; in the experiment listed under Homo sapiens [4]; in experiment [7]) was “Active” each time. The half-inhibitory concentration (IC50) in experiment [5] was found to be 14.1 µM; in the experiment on A549, 23.7 µM; in experiment [6] it was 1.9 µM.

Regarding `c1ccc(-c2nc3cccnc3c3c2Cc2ccccc2-3)cc1`, the inhibition result (in the experiment filed under Homo sapiens [1]; in the experiment listed under Homo sapiens [2]; in the experiment listed under Homo sapiens [3]; in the experiment listed under Homo sapiens [4]; in experiment [7]) was “Active” throughout. Further, the IC50 is more than 100 µM in [5], more than 100 µM in the experiment on A549 and 47.9 µM in [6].

In the case of `Fc1ccc(-c2nc3cccnc3c3c2Cc2ccccc2-3)c(F)c1`, the inhibition result in the experiment filed under Homo sapiens [1], in the experiment filed under Homo sapiens [2] and in the experiment listed under Homo sapiens [3] was “Active” throughout. The half-inhibitory concentration (IC50) in [5] was found to be 39.6 µM; with A549, 1.7 µM; in experiment [6], 6.4 µM.

Consider `c1ccc2c(c1)Cc1c(-c3ccncc3)nc3cccnc3c1-2`, for which the inhibition entry in the experiment listed under Homo sapiens [1], in the experiment listed under Homo sapiens [2] and in the experiment listed under Homo sapiens [3] was “Active” in each case. Besides, the IC50 in experiment [5] was 32.9 µM; in the experiment with A549, 2.9 µM; in experiment [6], 10.5 µM.

On to `FC(F)(F)c1ccc([C@H]2Nc3cccnc3[C@H]3c4ccccc4C[C@H]32)cc1` (relative stereo), for which the inhibition entry (in the experiment listed under Homo sapiens [1]; in the experiment filed under Homo sapiens [2]; in the experiment filed under Homo sapiens [3]; in the experiment filed under Homo sapiens [4]; in experiment [7]) was “Active” throughout. In addition, the IC50 was 63.9 µM in experiment [5], 4.2 µM with A549 and more than 100 µM in experiment [6].

Take `Fc1cccc([C@H]2Nc3cccnc3[C@H]3c4ccccc4C[C@H]32)c1` (relative stereo): the inhibition result (in the experiment filed under Homo sapiens [8]; in the experiment listed under Homo sapiens [1]; in the experiment filed under Homo sapiens [2]; in the experiment filed under Homo sapiens [3]; in the experiment listed under Homo sapiens [4]; in experiment [7]) was “Active” throughout. Also, the IC50 was 15.5 µM in experiment [5], 3.5 µM in the experiment on A549 and more than 100 µM in experiment [6].

On to `Fc1ccc([C@H]2Nc3cccnc3[C@H]3c4ccccc4C[C@H]32)cc1F` (relative stereo), for which the inhibition result in the experiment filed under Homo sapiens [8], in the experiment filed under Homo sapiens [1], in the experiment filed under Homo sapiens [2] and in the experiment listed under Homo sapiens [3] was “Active” in each case. Besides, the IC50 is more than 100 µM in experiment [5], 27.3 µM in the experiment with A549 and more than 100 µM in [6].

Take `OC1c2ccccc2-c2c1c(-c1ccc(C(F)(F)F)cc1)nc1cccnc21` (stereo unspecified): the inhibition entry (in the experiment filed under Homo sapiens [1]; in the experiment listed under Homo sapiens [2]; in the experiment listed under Homo sapiens [3]; in the experiment listed under Homo sapiens [4]; in experiment [7]) was “Active” in each case. For the same compound, the IC50 (in [5]; with A549; in experiment [6]) was more than 100 µM each time.

Turning to `O=C1c2ccccc2-c2c1c(-c1ccc(F)c(F)c1)nc1cccnc21`, the inhibition result in the experiment filed under Homo sapiens [1], in the experiment filed under Homo sapiens [2] and in the experiment listed under Homo sapiens [3] was “Active” throughout. The IC50 was more than 100 µM in experiment [5], 20.7 µM in the experiment on A549 and more than 100 µM in experiment [6].

With `OC1c2ccccc2-c2c1c(-c1ccccc1)nc1cccnc21` (stereo unspecified), the inhibition result in the experiment filed under Homo sapiens [1], in the experiment listed under Homo sapiens [2] and in the experiment listed under Homo sapiens [3] was “Active” throughout. The IC50 (in experiment [5]; in the experiment on A549; in experiment [6]) was more than 100 µM in each case.

With `O=C1c2ccccc2-c2c1c(-c1ccc(C(F)(F)F)cc1)nc1cccnc21`, the inhibition entry in the experiment filed under Homo sapiens [1], in the experiment listed under Homo sapiens [2] and in the experiment listed under Homo sapiens [3] was “Active” in each case. Further, the IC50 (in experiment [5]; with A549; in experiment [6]) was more than 100 µM throughout.

For the compound `Fc1cccc(-c2nc3cccnc3c3c2Cc2ccccc2-3)c1`, the inhibition result (in the experiment filed under Homo sapiens [1]; in the experiment listed under Homo sapiens [2]; in the experiment listed under Homo sapiens [3]; in the experiment listed under Homo sapiens [4]; in [7]) was “Active” in each case. Besides, the IC50 (in [5]; in the experiment with A549; in experiment [6]) was more than 100 µM each time.

Consider `c1ccc2c(c1)C[C@@H]1[C@H]2c2ncccc2N[C@@H]1c1ccncc1` (relative stereo), for which the inhibition entry in the experiment listed under Homo sapiens [8], in the experiment filed under Homo sapiens [1], in the experiment listed under Homo sapiens [2] and in the experiment listed under Homo sapiens [3] was “Active” each time. Besides, the IC50 in experiment [5] is 24.4 µM; in the experiment with A549, 10.6 µM; in experiment [6], 55.4 µM.

`O=C1c2ccccc2-c2c1c(-c1ccc(F)cc1F)nc1cccnc21`: the inhibition entry in the experiment listed under Homo sapiens [1], in the experiment listed under Homo sapiens [2] and in the experiment filed under Homo sapiens [3] was “Active” in each case. Further, the values for the IC50 (in [5]; in the experiment on A549; in [6]) were more than 100 µM, 34.1 µM and more than 100 µM, respectively.

Regarding `CC[C@@]1(O)C(=O)OCc2c1cc1n(c2=O)Cc2cc3ccccc3nc2-1` [CAMPTOTHECIN], the inhibition entry in the experiment filed under Homo sapiens [1], in the experiment filed under Homo sapiens [2], in the experiment filed under Homo sapiens [9] and in the experiment listed under Homo sapiens [4] was “Active” each time. Also, in the experiment listed under Homo sapiens [3], the inhibition result was “inactive”. Moreover, the IC50 in experiment [5] was 0.07 µM; in [6], 0.0055 µM.

In the case of `O=[N+]([O-])c1ccc([C@H]2Nc3cccnc3[C@H]3c4ccccc4C[C@H]32)cc1` (relative stereo), the inhibition entry in the experiment filed under Homo sapiens [1], in the experiment listed under Homo sapiens [2] and in the experiment listed under Homo sapiens [3] was “Active” throughout. Also, the results for the IC50 (in experiment [5]; in the experiment with A549; in experiment [6]) were more than 100 µM, 10.5 µM and more than 100 µM, respectively.

In the case of `c1ccc([C@H]2Nc3cccnc3[C@H]3c4ccccc4C[C@H]32)cc1` (relative stereo), the inhibition result in the experiment filed under Homo sapiens [1], in the experiment listed under Homo sapiens [2] and in the experiment listed under Homo sapiens [3] was “Active” in each case. Further, the IC50 was more than 100 µM in [5], 5.3 µM in the experiment on A549 and more than 100 µM in experiment [6].

For the compound `O=[N+]([O-])c1ccc(-c2nc3cccnc3c3c2Cc2ccccc2-3)cc1`, the inhibition result in the experiment listed under Homo sapiens [1], in the experiment listed under Homo sapiens [2] and in the experiment filed under Homo sapiens [3] was “Active” throughout. Further, the IC50 in [5] worked out at 61.3 µM; with A549, 5.7 µM; in experiment [6] it was 50.8 µM.

With `Fc1ccc([C@H]2Nc3cccnc3[C@H]3c4ccccc4C[C@H]32)c(F)c1` (relative stereo), the inhibition entry in the experiment filed under Homo sapiens [8], in the experiment filed under Homo sapiens [1], in the experiment listed under Homo sapiens [2] and in the experiment listed under Homo sapiens [3] was “Active” throughout. The IC50 in experiment [5] was 86.4 µM; in the experiment with A549, 6.4 µM; in experiment [6] it was more than 100 µM.
